Measured values taken from patent publication US4346087A, “Antibacterial surface active agent containing azaalkenelactam” (priority 1979, dated 1982).
Values after ≈ are worked out from the molar mass of the structure shown. Where two headings read alike, the source gives them in different places.

Key:
Format in all cases: cell-based
[1] = tested on: Desulfovibrio desulfuricans IFO 13699; test: MIC against Desulfovibrio desulfuricans
Description: (§1) Below are described the antibacterial activities of the compounds in the compositions according to this invention.
(§2) The testing method complied with the standard method of Japan Sociaty of Chemotherapy.

[2] = tested on: Escherichia coli NIHJ; test: MIC against Escherichia coli NIHJ
Description: as §1, §2

[3] = tested on: Staphylococcus aureus FDA 209P; test: MIC against Staphylococcus aureus FDA 209P
Description: as §1, §2

[4] = Desulfovibrio desulfuricans, IFO13699, 24 h
[5] = Staphylococcus aureus, FDA209P, 24 h
[6] = Table 2, derivatives having a carboxylate radical, heart infusion agar, 37° C., 24 hours
[7] = Escherichia coli, Table 1, azaalkenelactams, heart infusion agar, 37° C., 24 hours, read-out: MIC
[8] = Staphylococcus aureus, FDA209P, Table 1, azaalkenelactams, heart infusion agar, 37° C., 24 hours, read-out: MIC
[9] = Escherichia coli, Table 2, derivatives having a carboxylate radical, heart infusion agar, 37° C., 24 hours, read-out: MIC

| Compound | MIC [1, 4] | MIC ([2]; Escherichia coli, 24 h) | MIC [3, 5] | also measured |
| --- | --- | --- | --- | --- |
| CCCCCCCCCCCCNCCNCCNCCCN1CCC[N+](CC(=O)[O-])=C(C)CC1=O [1-dodecylaminoethylaminoethylaminopropyl-4-methyl-1-aza-5-azoniacyclooct-4-en-2-one-5-acetate] | 25 mg/L (≈ 49 µM) | 100 mg/L (≈ 196 µM) | 12.5 mg/L (≈ 24.5 µM) | – |
| 4-octoxy(2-hydroxy)propyl-7-methyl-1-azonia-4-azacyclohept-7-en-5-one-1-acetate | – | – | – | MIC [1]: 25 mg/L; MIC [2, 6]: 800 mg/L; MIC [3]: 100 mg/L |
| CCCCCCCC/C=C\CCCCCCCC(=O)OCCN1CCN=C(C)CC1=O [Example 13, 4-oleoyloxyethyl-7-methyl-3,6-dihydro-2H-1,4-diazepin-5-one] | 12.5 mg/L (≈ 28.8 µM) | – | 100 mg/L (≈ 230 µM) | MIC [2, 7]: 1600 mg/L (≈ 3680 µM) |
| CCCCCCCCCCC(O)CN1CCN=C(C)CC1=O (stereo not drawn) [Example 26, 4-(2-hydroxy)dodecyl-7-methyl-3,6-dihydro-2H-1,4-diazepin-5-one] | 12.5 mg/L (≈ 40.3 µM) | 50 mg/L (≈ 161 µM) | 50 mg/L (≈ 161 µM) | – |
| CCCCCCCC/C=C\CCCCCCCC(=O)NCCN1CCN=C(C)CC1=O [Example 10, 4-oleamidoethyl-7-methyl-3,6-dihydro-2H-1,4-diazepin-5-one] | 6.25 mg/L (≈ 14.4 µM) | – | 50 mg/L (≈ 115 µM) | MIC [2, 7]: 1600 mg/L (≈ 3690 µM) |
| CCCCCCCCCCCCCCNCCN1CC[N+](C(C)C(=O)[O-])=CCC(C)C1=O (stereo not drawn) | 6.25 mg/L (≈ 13.8 µM) | 100 mg/L (≈ 221 µM) | 6.25 mg/L (≈ 13.8 µM) | – |
| CCCCCCCCCCCCCCCCCCCCC(O)CNCCNCCN1CCC[N+](CC(=O)[O-])=C(C)CC1=O (stereo not drawn) [1-(2-hydroxy)docosylaminoethylaminoethyl-4-methyl-1-aza-5-azoniacyclooct-4-en-2-one-5-acetate] | 6.25 mg/L (≈ 10.3 µM) | 50 mg/L (≈ 82.1 µM) | 25 mg/L (≈ 41.1 µM) | – |
| 1-(2-hydroxyhexadecyl)aminoethyl-3-methyl-1-aza-5-azoniacyclooct-4-en-2-one-5-acetate | – | – | – | MIC [1]: 6.25 mg/L; MIC [2]: 100 mg/L; MIC [3]: 12.5 mg/L |
| CCCCCCCC(=O)NCCN1CCN=C(C)CC1=O [Example 23, 4-octamidoethyl-7-methyl-3,6-dihydro-2H-1,4-diazepin-5-one] | 50 mg/L (≈ 169 µM) | 25 mg/L (≈ 84.6 µM) | 25 mg/L (≈ 84.6 µM) | – |
| 4-behenoyloxypropyl-6-methyl-2,3,6,7-tetrahydro-1,4-diazocin-5-one [Example 68] | – | – | – | MIC [1]: 25 mg/L; MIC [2]: 200 mg/L; MIC [3]: 100 mg/L |
| 1-(2-hydroxy)dodecyl-3-methyl-1-aza-5-azoniacyclooct-4-en-2-one-5-acetate | – | – | – | MIC [1]: 50 mg/L; MIC [2, 6]: 1600 mg/L; MIC [3]: 100 mg/L |
| CCCCCCCC/C=C\CCCCCCCCNCCCNC(=O)CCCCCCC/C=C\CCCCCCCC [Oleylaminopropyl oleamide, oleylaminopropyloleamide, reference compound] | 100 mg/L (≈ 170 µM) | – | – | MIC [2, 7]: ≥ 10000 mg/L; MIC [3, 8]: ≥ 10000 mg/L |
| CCCCCCCC/C=C\CCCCCCCC(=O)NCCN1CC[N+](CC(=O)[O-])=C(C)CC1=O [4-oleamidoethyl-7-methyl-1-azonia-4-azacyclohept-7-en-5-one-1-acetate] | 12.5 mg/L (≈ 25.4 µM) | – | 25 mg/L (≈ 50.8 µM) | MIC [2, 9]: 3200 mg/L (≈ 6510 µM) |
| CCCCCCCC(=O)NCCN1CC[N+](C(C)C(=O)[O-])=CCCC1=O (stereo not drawn) [4-octamidoethyl-4-aza-1-azoniacyclooct-8-en-5-one-1-propionate] | 50 mg/L (≈ 136 µM) | 200 mg/L (≈ 544 µM) | 400 mg/L (≈ 1090 µM) | – |
| CCCCCCCCCCCCC(O)CN1CCC[N+](CC(=O)[O-])=C(C)CC1=O (stereo not drawn) [1-(2-hydroxy)tetradecyl-4-methyl-1-aza-5-azoniacyclooct-4-en-2-one-5-acetate] | 6.25 mg/L (≈ 15.2 µM) | 100 mg/L (≈ 244 µM) | 25 mg/L (≈ 60.9 µM) | – |
| CCCCCCCCCCCCN1CCN=C(C)CC1=O [Example 1, 4-dodecyl-7-methyl-3,6-dihydro-2H-1,4-diazepin-5-one] | 6.25 mg/L (≈ 21.2 µM) | – | – | MIC [2, 7]: 1600 mg/L (≈ 5430 µM); MIC [3, 8]: 50 mg/L (≈ 170 µM) |
| CCCCCCCCC=CCCCCCCCCN1CCC[N+](CC(=O)[O-])=C(C)CC1=O [1-(9-octadecenyl)-4-methyl-1-aza-5-azoniacyclooct-4-en-2-one-5-acetate] | 12.5 mg/L (≈ 27.9 µM) | – | 12.5 mg/L (≈ 27.9 µM) | MIC [2, 9]: 800 mg/L (≈ 1780 µM) |
| CCCCCCCC(=O)OCCN1CCN=C(C)CC1=O [Example 24, 4-octoyloxyethyl-7-methyl-3,6-dihydro-2H-1,4-diazepin-5-one] | 25 mg/L (≈ 84.3 µM) | – | 200 mg/L (≈ 675 µM) | MIC [2, 7]: 800 mg/L (≈ 2700 µM) |
| CC1=[N+](CC(=O)[O-])CCN(CC(C)OCC(C)OCC(C)OCc2ccc(C)cc2)C(=O)C1 (stereo not drawn) [4-methylbenzylpoly(2 moles)oxypropyleneoxypropyl-7-methyl-1-azonia-4-azacyclohept-7-en-5-one-1-acetate] | 50 mg/L (≈ 108 µM) | 400 mg/L (≈ 865 µM) | 50 mg/L (≈ 108 µM) | – |
